Laboratory results taken from patent US20210221848A1, “POLYMYXIN DERIVATIVES AND THEIR USE IN COMBINATION THERAPY TOGETHER WITH DIFFERENT ANTIBIOTICS” (priority 2014, published 2021).
Like-named read-outs stand apart in the source and are kept apart here.

Tests used:
[1] = system: E. coli strains with elevated MICs to Polymyxin B; experiment: MIC against strains with elevated MICs to Polymyxin B; assay type: cell-based, Escherichia coli; conditions: Table 6D; for MIC E. coli 058: strain 058, elevated MIC to Polymyxin B; for MIC E. coli 059: strain 059, elevated MIC to Polymyxin B; for MIC E. coli 060: strain 060, elevated MIC to Polymyxin B; for MIC E. coli 061: strain 061, elevated MIC to Polymyxin B
In short: (§1)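 Direct colony suspension at 0.5 McFarland (from 18-24 h Mueller-Hinton agar) served as inoculum; duplicates, lower value kept if within 2-fold.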

[2] = system: K. pneumoniae strains with elevated MICs to Polymyxin B; experiment: MIC against strains with elevated MICs to Polymyxin B; assay type: cell-based, Klebsiella pneumoniae; conditions: Table 6D; for MIC K. pneumoniae 062: strain 062, elevated MIC to Polymyxin B; for MIC K. pneumoniae 063: strain 063, elevated MIC to Polymyxin B; for MIC K. pneumoniae 064: strain 064, elevated MIC to Polymyxin B; for MIC K. pneumoniae 655: strain 655, elevated MIC to Polymyxin B
In short: as §1

[3] = system: P. aeruginosa strains with elevated MICs to Polymyxin B; experiment: MIC against strains with elevated MICs to Polymyxin B; assay type: cell-based, Pseudomonas aeruginosa; conditions: Table 6D; for MIC P. aeruginosa 066: strain 066, elevated MIC to Polymyxin B; for MIC P. aeruginosa 067: strain 067, elevated MIC to Polymyxin B; for MIC P. aeruginosa 065: strain 065, elevated MIC to Polymyxin B
In short: as §1

[4] = system: A. baumanii strains with elevated MICs to Polymyxin B; experiment: as above; assay type: cell-based, Acinetobacter baumannii; conditions: Table 6D; for MIC A. baumannii 053: strain 053, elevated MIC to Polymyxin B; for MIC A. baumannii 056: strain 056, elevated MIC to Polymyxin B; for MIC A. baumannii 068: strain 068, elevated MIC to Polymyxin B; for MIC A. baumannii 070: strain 070, elevated MIC to Polymyxin B
In short: as §1

[5] = absence of a second agent, Table 6B

Substance | MIC E. coli 058 [1] [micrograms/mL] | MIC E. coli 059 [1] [micrograms/mL] | MIC E. coli 060 [1] [micrograms/mL] | MIC E. coli 061 [1] [micrograms/mL] | MIC, A. baumannii ATCC BAA-747 (A. baumannii; [5]) [micrograms/mL] | MIC, A. baumannii NCTC 13424 (A. baumannii; [5]) [micrograms/mL] | MIC K. pneumoniae 062 [2] [micrograms/mL] | MIC K. pneumoniae 063 [2] [micrograms/mL] | MIC K. pneumoniae 064 [2] [micrograms/mL] | MIC K. pneumoniae 655 [2] [micrograms/mL] | MIC, E. coli ATCC 25922 (E. coli; [5]) [micrograms/mL] | MIC, E. coli NCTC 13441 (E. coli; [5]) [micrograms/mL] | MIC, K. pneumoniae ATCC BAA-2146 (K. pneumoniae; [5]) [micrograms/mL] | MIC P. aeruginosa 066 [3] [micrograms/mL] | MIC P. aeruginosa 067 [3] [micrograms/mL] | MIC A. baumannii 053 [4] [micrograms/mL] | MIC A. baumannii 056 [4] [micrograms/mL] | MIC A. baumannii 068 [4] [micrograms/mL] | MIC A. baumannii 070 [4] [micrograms/mL] | MIC, P. aeruginosa ATCC 27853 (P. aeruginosa; [5]) [micrograms/mL] | also measured
(cis-5-octylpiperidine)- 3-carbonyl polymyxin B nonapeptide [Example D21] | 1 | 0.5 | 1 | 2 | 0.5 | 2 | 2 | 32 | 1 | 32 | 0.5 | 0.5 | 1 | 2 | 4 | 8 | 4 | 1 | 2 | 0.5 | MIC, K. pneumoniae ATCC 4352 (K. pneumoniae; [5]): 0.25 micrograms/mL; MIC, P. aeruginosa CCUG 59347 (P. aeruginosa; [5]): 0.5 micrograms/mL
(trans-5-(isobutyl- piperidine)-3- carbonyl L-Thr- D-Ser-polymyxin B heptapeptide [Example D82] | 4 | 4 | 4 | 8 | – | – | 32 | 16 | 1 | 8 | – | – | – | – | 64 | 16 | 8 | 32 | 32 | – | MIC, A. baumannii ATCC BAA-747 (A. baumannii; sole activity, Table 6C): 0.06 micrograms/mL; MIC, A. baumannii NCTC 13424 (A. baumannii; sole activity, Table 6C): 0.125 micrograms/mL; MIC, E. coli ATCC 25922 (E. coli; sole activity, Table 6C): 0.125 micrograms/mL; MIC, K. pneumoniae ATCC 4352 (K. pneumoniae; sole activity, Table 6C): 0.06 micrograms/mL; MIC P. aeruginosa 065 [3]: 0.5 micrograms/mL; MIC, P. aeruginosa ATCC 27853 (P. aeruginosa; sole activity, Table 6C): 2 micrograms/mL; MIC, P. aeruginosa CCUG 59347 (P. aeruginosa; sole activity, Table 6C): 4 micrograms/mL
(cis-5-octylpiperidine)- 3-carbonyl polymyxin B nonapeptide [Example D20] | – | 4 | 16 | 32 | >8 | >8 | >64 | >64 | >64 | >64 | 4 | 4 | >8 | 64 | >64 | >64 | >64 | 32 | 64 | 0.5 | MIC, K. pneumoniae ATCC 4352 (K. pneumoniae; [5]): 8 micrograms/mL; MIC, P. aeruginosa CCUG 59347 (P. aeruginosa; [5]): 1 micrograms/mL
(S)-4-amino-2- ((2- trifluoromethyben- zyl)amino)butanoyl L-Thr-L-Dap- polymyxin B heptapeptide [Example D88] | 2 | 8 | 4 | 16 | – | – | 32 | 16 | 1 | 16 | – | – | – | 1 | >64 | >64 | 32 | 8 | 16 | – | MIC, A. baumannii ATCC BAA-747 (A. baumannii; sole activity, Table 6C): 0.06 micrograms/mL; MIC, A. baumannii NCTC 13424 (A. baumannii; sole activity, Table 6C): 0.06 micrograms/mL; MIC, E. coli ATCC 25922 (E. coli; sole activity, Table 6C): 0.06 micrograms/mL; MIC, K. pneumoniae ATCC 4352 (K. pneumoniae; sole activity, Table 6C): 0.06 micrograms/mL; MIC P. aeruginosa 065 [3]: 0.25 micrograms/mL; MIC, P. aeruginosa ATCC 27853 (P. aeruginosa; sole activity, Table 6C): 0.125 micrograms/mL; MIC, P. aeruginosa CCUG 59347 (P. aeruginosa; sole activity, Table 6C): 0.5 micrograms/mL
(trans-5-(isobutyl- piperidine)-3- carbonyl L-Thr- D-Dap-polymyxin B heptapeptide [Example D87] | 1 | 1 | 1 | 4 | – | – | 8 | 8 | 0.5 | 4 | – | – | – | 0.25 | 64 | 32 | 2 | 2 | 2 | – | MIC, A. baumannii ATCC BAA-747 (A. baumannii; sole activity, Table 6C): 0.03 micrograms/mL; MIC, A. baumannii NCTC 13424 (A. baumannii; sole activity, Table 6C): 0.03 micrograms/mL; MIC, E. coli ATCC 25922 (E. coli; sole activity, Table 6C): 0.03 micrograms/mL; MIC, K. pneumoniae ATCC 4352 (K. pneumoniae; sole activity, Table 6C): 0.06 micrograms/mL; MIC P. aeruginosa 065 [3]: 0.5 micrograms/mL; MIC, P. aeruginosa ATCC 27853 (P. aeruginosa; sole activity, Table 6C): 0.25 micrograms/mL; MIC, P. aeruginosa CCUG 59347 (P. aeruginosa; sole activity, Table 6C): 1 micrograms/mL
(trans-5- octylpiperidine)-3- carbonyl polymyxin B nonapeptide [Example D22] | – | 8 | 16 | 64 | >8 | >8 | >64 | >64 | >64 | >256 | 4 | 4 | >8 | >64 | >64 | >64 | >64 | 4 | 4 | 2 | MIC, P. aeruginosa CCUG 59347 (P. aeruginosa; [5]): 1 micrograms/mL
